Marks after values point to notes of the source that are not given here.
How the values were obtained:
[1] = biological target: T1, LAT1 (Homo sapiens, UniProt Q01650); assay: LAT1 function: competitive uptake of L-dopa in SK-MEL-2 cells; assay type: cell-based; conditions: for Percent Inhibition of L-Dopa Distribution Volume: competitor (BCH, L-tyrosine, sesamol 1 mM; L-leucine, L-alanine 2 mM; melphalan 0.05 mM); for L-Dopa Distribution Volume in presence of the compound: competitor at the concentration printed in the row
Method: (§1) SK-MEL-2 and Vero cells were seeded separately into 24-well plates at 2 × 10^5 cells/well for 24 h. The media was removed, and the cells pre-incubated with HBSS pH 7.4 for 10 min. The cells were used for the following experiments.
(§2) Sesamol was also investigated for its affinity to LAT1. […] Competitive uptake was performed for 10 min then the cells were washed twice with ice-cold PBS. The L-dopa was solubilized by 0.1 M HCl and the cell lysate (25 µL) was pipetted for protein determination. […] Intracellular and extracellular L-dopa was quantified by the HPLC assay. The L-dopa uptake was represented as the distribution volume of L-dopa in a cell to media ratio (C/M ratio) as calculated in Section 4.3.1.
The analysis was based on a BDS Hypersil C-18 column, (4.6 × 250 mm, 5 µm packing, Thermo Fisher Scientific, Waltham, MA, USA). The column temperature was set at 30 °C with a flow rate of 0.8 mL/min. The mobile phase for sesamol quantification was 70% methanol in water, vs. 20% methanol in water for L-dopa. […] The validated sesamol quantification conducted using sesamol spiked cell lysate with high selectivity and clear separation from the endogenous cell lysate as previously reported. The % bias and % precision was determined within and between days, each was maintained below 6%.

[2] = system: SK-MEL-2 cells; assay: Antiproliferative effect, neutral red uptake assay, SK-MEL-2 cells; assay type: cell-based, human
Method: (§3) The SK-MEL-2 and Vero cells (at 5 × 10^4 cells/well) were seeded separately into 96-well plates. After the cells were exposed to the tested compounds (200 µL) for 24 h, neutral red (50 µg/mL) (Sigma-Aldrich, St. Louis, MO, USA) was incorporated into the cells for 2 h. The cells were then washed with ice-cold PBS and lysed using 0.33% HCl in isopropanol. The absorbances of neutral red were measured at 540 nm with a reference wavelength of 660 nm using a UV-microplate reader (Perkin Elmer, Waltham, MA, USA). […] The selective index was calculated from the ratio of the IC50 of Vero and SK-MEL-2 cells.

[3] = system: LAT1; conditions: Vero cells, sesamol 0.1 mM, 10 min; for Percent Inhibition of Sesamol Distribution Volume: competitor at the concentration (BCH, L-tyrosine, L-dopa 1 mM; L-leucine, L-alanine 2 mM; melphalan 0.05 mM); for Sesamol Distribution Volume in presence of the compound: competitor at the concentration printed in the row
Method: as §1
(§4) Competitive inhibition of uptake of sesamol was done in both SK-MEL-2 and the Vero cells. […] The cells were washed twice with ice-cold PBS, solubilized in methanol, and centrifuged at 2400× g, at 4 °C for 20 min. The precipitated protein was re-solubilized by 0.1 M NaOH prior to protein determination. The sesamol content was quantified using HPLC assay. The cellular uptake of sesamol was calculated as per the C/M ratio.
(§5) Quantitative analysis of sesamol and L-dopa were performed using a Shimadzu HPLC (LC-2030C-3D) with a UV photodiode array detector (DAD) (Kyoto, Japan). The analysis was based on a BDS Hypersil C-18 column, (4.6 × 250 mm, 5 µm packing, Thermo Fisher Scientific, Waltham, MA, USA). The column temperature was set at 30 °C with a flow rate of 0.8 mL/min. The mobile phase for sesamol quantification was 70% methanol in water, vs. 20% methanol in water for L-dopa. The respective detection wavelength and elution time for sesamol and L-dopa was 297 nm and 280 nm and 4.2 and 4.5 min. The validated sesamol quantification conducted using sesamol spiked cell lysate with high selectivity and clear separation from the endogenous cell lysate as previously reported. The % bias and % precision was determined within and between days, each was maintained below 6%.

[4] = system: Vero cells; assay: Antiproliferative effect, neutral red uptake assay, Vero cells; assay type: cell-based, African green monkey
Method: as §3

[5] = system: LAT1; assay: LAT1 function: competitive uptake of L-dopa in Vero cells; assay type: cell-based, African green monkey; conditions: L-dopa 0.1 mM, 10 min; for Percent Inhibition of L-Dopa Distribution Volume: competitor (BCH, L-tyrosine, sesamol 1 mM; L-leucine, L-alanine 2 mM; melphalan 0.05 mM); for L-Dopa Distribution Volume in presence of the compound: competitor at the concentration printed in the row
Method: as §1, §2, §5

[6] = biological target: T1, LAT1; assay: cell-based; conditions: for Percent Inhibition of Sesamol Distribution Volume / Sesamol Distribution Volume in presence of the compound: SK-MEL-2, sesamol 0.1 mM, 10 min; for Percent Inhibition of Sesamol Distribution Volume: competitor at the concentration (BCH, L-tyrosine, L-dopa 1 mM; L-leucine, L-alanine 2 mM; melphalan 0.05 mM); for Sesamol Distribution Volume in presence of the compound: competitor at the concentration printed in the row
Method: as §1, §4, §5

[7] = SK-MEL-2, L-dopa 0.1 mM, 10 min
[8] = SK-MEL-2, read-out: Percent Inhibition of L-Dopa Distribution Volume
[9] = SK-MEL-2, read-out: Percent Inhibition of Sesamol Distribution Volume

T1 sequence (Q01650 whole entry): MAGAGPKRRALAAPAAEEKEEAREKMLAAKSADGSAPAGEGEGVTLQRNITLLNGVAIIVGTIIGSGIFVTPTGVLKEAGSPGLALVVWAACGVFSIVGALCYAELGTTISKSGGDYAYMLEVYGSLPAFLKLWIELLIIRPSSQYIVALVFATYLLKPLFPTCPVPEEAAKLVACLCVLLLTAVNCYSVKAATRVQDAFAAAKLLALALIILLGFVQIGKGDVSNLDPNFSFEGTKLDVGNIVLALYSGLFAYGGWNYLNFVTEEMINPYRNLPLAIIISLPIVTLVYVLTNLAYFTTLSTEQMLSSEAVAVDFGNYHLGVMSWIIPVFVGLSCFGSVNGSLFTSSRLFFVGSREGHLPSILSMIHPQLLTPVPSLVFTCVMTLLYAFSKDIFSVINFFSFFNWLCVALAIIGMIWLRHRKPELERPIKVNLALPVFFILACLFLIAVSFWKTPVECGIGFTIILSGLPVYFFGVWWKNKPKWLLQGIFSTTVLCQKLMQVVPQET
T1 sequence (P08195 102-630 partner): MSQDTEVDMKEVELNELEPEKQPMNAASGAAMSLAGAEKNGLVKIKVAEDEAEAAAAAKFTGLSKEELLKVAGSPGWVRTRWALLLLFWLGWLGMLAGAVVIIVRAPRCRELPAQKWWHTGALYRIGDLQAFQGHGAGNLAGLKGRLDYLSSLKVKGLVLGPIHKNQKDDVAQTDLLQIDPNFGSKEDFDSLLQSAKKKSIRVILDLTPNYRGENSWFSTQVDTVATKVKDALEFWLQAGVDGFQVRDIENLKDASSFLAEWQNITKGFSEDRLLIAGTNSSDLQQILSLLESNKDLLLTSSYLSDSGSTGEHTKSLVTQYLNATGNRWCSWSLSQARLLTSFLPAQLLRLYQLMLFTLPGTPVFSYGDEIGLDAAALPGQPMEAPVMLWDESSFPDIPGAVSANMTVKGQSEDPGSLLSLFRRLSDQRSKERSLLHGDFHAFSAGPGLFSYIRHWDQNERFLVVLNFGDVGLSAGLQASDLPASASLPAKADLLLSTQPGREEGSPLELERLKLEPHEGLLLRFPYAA

NC1(C(=O)O)CC2CCC1C2 (stereo not drawn) [BCH, 2-Amino-2-norbornanecarboxylic acid]
Percent Inhibition of L-Dopa Distribution Volume [1, 7]: 82% | L-Dopa Distribution Volume in presence of the compound [1, 7]: 67.3 ± 14.0 µL/mg Protein | cytotoxicity compared to untreated cells ([2]; SK-MEL-2 cells, BCH 1 mM): no cytotoxicity | Percent Inhibition of Sesamol Distribution Volume [3]: 42% | Sesamol Distribution Volume in presence of the compound [3]: 10.4 ± 1.9 µL/mg Protein | cytotoxicity compared to untreated cells ([4]; Vero cells, BCH 1 mM): no cytotoxicity | Percent Inhibition of L-Dopa Distribution Volume [5]: 69% | L-Dopa Distribution Volume in presence of the compound [5]: 47.9 ± 3.7 µL/mg Protein | Percent Inhibition of Sesamol Distribution Volume [6]: 55% | Sesamol Distribution Volume in presence of the compound [6]: 10.3 ± 0.9 µL/mg Protein

C[C@H](N)C(=O)O [L-Alanine, L-alanine]
L-Dopa Distribution Volume in presence of the compound [1, 7]: 121.2 ± 3.6 µL/mg Protein | inhibition at 2000 µM [1, 8]: 67% | Percent Inhibition of Sesamol Distribution Volume [3]: 25% | Sesamol Distribution Volume in presence of the compound [3]: 13.3 ± 2.0 µL/mg Protein | Percent Inhibition of L-Dopa Distribution Volume [5]: 35% | L-Dopa Distribution Volume in presence of the compound [5]: 101.3 ± 4.0 µL/mg Protein | inhibition at 2000 µM [6, 9]: 44% | Sesamol Distribution Volume in presence of the compound [6]: 13.1 ± 0.3 µL/mg Protein

N[C@@H](Cc1ccc(O)c(O)c1)C(=O)O [L-Dopa, L-dopa]
L-Dopa Distribution Volume, control (no competitor) ([1]; SK-MEL-2, L-dopa 0.1 mM, 10 min, 37 °C): 0% (370.6 ± 13.0)^a µL/mg Protein | Percent Inhibition of Sesamol Distribution Volume [3]: 40% (10.8 ± 2.0)^b,c | L-Dopa Distribution Volume, control (no competitor) ([5]; 37 °C): 0% (155.6 ± 17.8)^a µL/mg Protein | inhibition at 1000 µM [6, 9]: 68% | Sesamol Distribution Volume in presence of the compound [6]: 7.4 ± 0.8 µL/mg Protein

CC(C)C[C@H](N)C(=O)O [L-leucine, L-Leucine]
Percent Inhibition of L-Dopa Distribution Volume [1, 7]: 75% | L-Dopa Distribution Volume in presence of the compound [1, 7]: 94.1 ± 13.5 µL/mg Protein | Percent Inhibition of Sesamol Distribution Volume [3]: 23% | Sesamol Distribution Volume in presence of the compound [3]: 13.8 ± 1.4 µL/mg Protein | Percent Inhibition of L-Dopa Distribution Volume [5]: 75% | L-Dopa Distribution Volume in presence of the compound [5]: 39.1 ± 2.3 µL/mg Protein | Percent Inhibition of Sesamol Distribution Volume [6]: 50% | Sesamol Distribution Volume in presence of the compound [6]: 11.7 ± 0.7 µL/mg Protein

N[C@@H](Cc1ccc(O)cc1)C(=O)O [L-tyrosine]
Percent Inhibition of L-Dopa Distribution Volume [1, 7]: 72% | Percent Inhibition of Sesamol Distribution Volume [3]: 41% | Percent Inhibition of L-Dopa Distribution Volume [5]: 69% | L-Dopa Distribution Volume in presence of the compound [5]: 48.7 ± 11.0 µL/mg Protein | Percent Inhibition of Sesamol Distribution Volume [6]: 75% | Sesamol Distribution Volume in presence of the compound [6]: 5.8 ± 0.2 µL/mg Protein

N[C@@H](Cc1ccc(N(CCCl)CCCl)cc1)C(=O)O [Melphalan, melphalan]
inhibition at 50 µM [1, 8]: 47% | L-Dopa Distribution Volume in presence of the compound [1, 7]: 196.6 ± 20.3 µL/mg Protein | IC50 ([2]; Homo sapiens, SK-MEL-2, 24 h, read-out: IC50 (cell viability)): 100 µM | Selective Index ([2]; ratio of the IC50 of Vero and SK-MEL-2 cells): 6.0 | Percent Inhibition of Sesamol Distribution Volume [3]: 35% | Sesamol Distribution Volume in presence of the compound [3]: 11.7 ± 0.7 µL/mg Protein | IC50 ([4]; Chlorocebus sabaeus, Vero, 24 h, read-out: IC50 (cell viability)): 600 ± 300 µM | Percent Inhibition of L-Dopa Distribution Volume [5]: 39% | L-Dopa Distribution Volume in presence of the compound [5]: 95.5 ± 11.2 µL/mg Protein | inhibition at 50 µM [6, 9]: 60% | Sesamol Distribution Volume in presence of the compound [6]: 9.4 ± 0.7 µL/mg Protein

Reference: publication PMC6865181, “Role of L-Type Amino Acid Transporter 1 (LAT1) for the Selective Cytotoxicity of Sesamol in Human Melanoma Cells” (Molecules, 2019)
